How the values were obtained:
H1975 = tested on: H1975
Procedure: (§1) All animal procedures were approved by the local animal protection committee and the local authorities. H1975, H441 and H1650 cells (5x10^6 cells) were injected subcutaneously into male nude mice. […] Mice were treated daily by oral gavage of ZD6474 (50 mg/kg, solved in vehicle), PD0325901 (12mg/kg, dissolved in propylene glycol:water (1:1)), the combination of ZD6474 (50 mg/kg) and PD0325901 (12mg/kg) or vehicle detergent alone. Tumor size of tumors expressing high levels of VEGFR2 (H441, H1975) and tumor with low expression of VEGFR2 (H1650) were monitored measuring perpendicular diameters.
(§2) All animal procedures were approved by the local animal protection committee and the local authorities. High VEGFR2 expressing tumor cell H1975 and H441 (5x10^6 cells), and very low VEGFR2 expressing cells H1650 (5x10^6 cells) were injected subcutaneously into male nude mice. […] Mice were treated daily by oral gavage of ZD6474 (50 mg/kg, solved in vehicle), PD0325901 (12mg/kg, dissolved in propylene glycol:water (1:1)), the combination of ZD6474 (50 mg/kg) and PD0325901 (12mg/kg) or vehicle detergent alone. Tumor size of tumors expressing high levels of VEGFR2 (H441, H1975) and tumor with low expression of VEGFR2 (H1650) were monitored during treatment measuring perpendicular diameters.

H441 = settings: H441, high VEGFR2; daily oral gavage ZD6474 50 mg/kg, PD0325901 12mg/kg; start at about 50mm^3; Fig. 10
Procedure: as §1, §2

H1650 = settings: H1650, very low VEGFR2; daily oral gavage ZD6474 50 mg/kg, PD0325901 12mg/kg; start at about 50mm^3; Fig. 10
Procedure: as §1, §2

H1975 cells = assay: VEGF secretion ELISA assay, H1975 cells; format: cell-based, human; settings: H1975 expressing ZD6474 resistance mutation of VEGFR2; in vitro
Procedure: Cells were either treated with the indicated compounds or DMSO alone. After 4 hours cells were stimulated with 40 ng/ml of VEGF165, or incubated in medium containing DMSO only. Cells were then washed twice with PBS and supplemented with serum-free medium and allowed to secrete VEGF for 48 hours. Secretion of VEGF into cell culture supernatants was measured by Human VEGF Quantikine Kit (R&D Systems) according to manufacturer's instructions.

| SMILES | tumor volume (H1975; H1975, high VEGFR2, daily oral gavage ZD6474 50 mg/kg, PD0325901 12mg/kg, start at about 50mm^3, Fig. 10) | tumor volume (H441) | tumor volume (H1650) | ZD6474-mediated inhibition of VEGF secretion (H1975 cells) | tumor-growth inhibiting effects of the compound (H1975; H1975 expressing ZD6474 resistance mutation of VEGFR2, in vivo, Fig. 1e) |
| --- | --- | --- | --- | --- | --- |
| O=C(NOC[C@H](O)CO)c1ccc(F)c(F)c1Nc1ccc(I)cc1F [PD0325901, N-[(2R)-2,3-dihydroxypropoxy]-3,4-difluoro-2-[(2-fluoro-4-iodophenyl)amino]-benzamide] | did not reduce the tumor volume | did not reduce the tumor volume | increased alike |  |  |
| COc1cc2c(Nc3ccc(Br)cc3F)ncnc2cc1OCC1CCN(C)CC1 [Vandetanib, N-(4-bromo-2-fluorophenyl)-6-methoxy-7-[(1-methylpiperidin-4-yl)methoxy]quinazolin-4-amine] |  |  |  | abolished | suppressed |

— patent EP2626066A1, “Combination therapy comprising selective VEGFR-2 inhibitors and MEK inhibitors” (Max-Planck-Gesellschaft zur Förderung der Wissenschaften …, priority 2012, dated 2013)
